Results reported in ChEMBL document CHEMBL1121777, “Synthesis and antidepressant activity of substituted (omega-aminoalkoxy)benzene derivatives” (J Med Chem, 1981).
In brackets after ≈: the same amount, converted by molar mass.

What was measured:
Mus musculus [1] = species on record: Mus musculus; experiment: The compound was tested for it's ability to prevent the reserpine induced hypothermia in mice; type: functional
Mus musculus [2] = species on record: Mus musculus; experiment: Ability to prevent the reserpine induced hypothermia in mice relative to amitriptyline; type: functional
Mus musculus [3] = experiment: The compound was tested for it's ability to reverse the reserpine induced hypothermia in mice, po; type: functional
Rattus norvegicus [4] = experiment: Antimuricide effect was observed in the olfactory bulb removed rats; antimuricide effect at 30 mg/kg; ++ = 51-70%; type: functional
Mus musculus [5] = experiment: Muscle relaxant effect was measured as ED50 which is the dose that causes muscle relaxation in 50% of the mice, po; type: functional
Mus musculus [6] = experiment: Antiphysostigmine effect was measured as ED50,po; type: functional
Cavia porcellus = species on record: Cavia porcellus; experiment: Concentration required to reducing the histamine induced contraction by 50% was measured; type: functional
[7] = Toxicity was measured as LD50,po; type: organism-based; conditions: mouse, in vivo
Mus musculus [8] = species on record: Mus musculus; experiment: The compound was tested for it's ability to reverse the reserpine induced hypothermia in mice; type: functional
Rattus norvegicus [9] = experiment: Antimuricide effect was observed in the olfactory bulb removed rats; antimuricide effect at 30 mg/kg; ++ = 51 - 70%; type: functional
Rattus norvegicus [10] = experiment: Antimuricide effect was observed in the olfactory bulb removed rats; antimuricide effect at 30 mg/kg; + = 31-50%; type: functional
Rattus norvegicus [11] = experiment: Antimuricide effect was observed in the olfactory bulb removed rats; antimuricide effect at 30 mg/kg; + = 31 - 50%; type: functional

SMILES | Relative potency (Mus musculus [2]) | other results
CNCCCCOc1ccccc1Nc1ccccc1.Cl |  | Relative potency (Mus musculus [1]): 0.29
CNCCCCOc1ccc(Cl)cc1Cc1ccccc1.Cl | 0.17 | 
CNCCCCOc1ccccc1[S+]([O-])c1ccccc1.Cl (stereo not given) | 0.49 | 
CNCCCCOc1ccccc1C(=O)Nc1ccccc1.Cl | 0.36 | 
CN(C)CCCCOc1ccccc1Oc1ccccc1.Cl | 0.58 | 
CNCCCCOc1ccccc1S(=O)(=O)c1ccccc1.Cl | 0.17 | 
Cc1ccc(Cc2ccccc2OCCCCN(C)C)cc1.Cl | 0.18 | 
CNCCCCOc1ccccc1Cc1ccccc1OC.Cl | 0.85 | 
CNCCCCOc1ccccc1Cc1ccc(Cl)cc1.Cl | 0.27 | 
CNCCCCOc1ccccc1C1CCCCC1.Cl | 0.28 | 
COc1ccc(Cc2ccccc2OCCCCN(C)C)cc1.Cl | 0 | 
CNCCCCOc1ccc(Cc2ccccc2)cc1.Cl | 0 | 
Cl.NCCCCOc1ccccc1Cc1ccccc1 | 0 | 
CCNCCCOc1ccccc1Cc1ccccc1.Cl | 0 | 
CN(C)CCCOc1ccccc1Cc1ccccc1.Cl | 0 | 
CNCCCCOc1ccccc1C(C)c1ccccc1.Cl (stereo not given) | 0.66 | 
CNCCCCOc1ccccc1C(O)c1ccccc1.Cl (stereo not given) | 0 | 
CN(C)CCCCOc1ccccc1Sc1ccccc1.Cl | 0.7 | 
CNCCCCOc1ccccc1Oc1ccccc1.Cl | 1.1 | ED10 (Mus musculus [3]): 8.8 mg/kg; Effect (Rattus norvegicus [4]): 51%; ED50 (Mus musculus [5]): > 200 mg/kg; ED50 (Mus musculus [6]): > 200 mg/kg; IC50 (Cavia porcellus): 1.6 µg/mL; LD50 [7]: 600 mg/kg
CNCCCCOc1ccc(O)cc1Cc1ccccc1.Cl | 0.31 | 
Cl.c1ccc(Cc2ccccc2OCCCCN2CCCCC2)cc1 | 0.41 | 
CN(C)CCCCOc1ccccc1Cc1ccccc1.Cl | 0 | 
CNCCCCOc1ccccc1OCc1ccccc1.Cl | 0 | 
CNCCCCOc1ccccc1Cc1ccccc1.Cl | 0.78 | ED10 (Mus musculus [8]): 12.5 mg/kg; ED50 (Mus musculus [5]): > 200 mg/kg; ED50 (Mus musculus [6]): > 200 mg/kg; IC50 (Cavia porcellus): 1.1 µg/mL; LD50 [7]: 1000 mg/kg

SMILES | Relative potency (Mus musculus [2]) | other results
CNCCCCOc1ccccc1Cc1ccc(OC)cc1.Cl | 0 | 
CCOc1ccccc1OCCCCNC.Cl | 0 | 
CNCCOc1ccccc1Cc1ccccc1.Cl | 0 | 
CN(C)CCOc1ccccc1Cc1ccccc1.Cl | 0 | IC50 (Cavia porcellus): 0.001 µg/mL
CNCCCCOc1ccccc1Cc1ccc(C)cc1.Cl | 0.44 | 
CNCCCCOc1ccccc1CCc1ccccc1.Cl | 0 | 
CN(C)CCCCOc1ccc(Cl)cc1Cc1ccccc1.Cl | 0.26 | 
CN(C)CCCCOc1ccccc1Cc1ccccc1O.Cl | 0.77 | 
CN(C)CCCCOc1ccccc1Cc1ccc(Cl)cc1.Cl | 0.17 | 
CNCCCCOc1ccccc1Cl.Cl | 0 | 
CNCCCCOc1ccc(OC)cc1.Cl | 0 | 
CNCCCCCOc1ccccc1Cc1ccccc1.Cl | 0.57 | 
CCNCCCCOc1ccccc1Cc1ccccc1.Cl | 0.53 | 
CN1CCN(CCCCOc2ccccc2Cc2ccccc2)CC1.Cl | 0 | 
CC(c1ccccc1)c1ccccc1OCCCCN(C)C.Cl (stereo not given) | 0.36 | 
Cl.c1ccc(Cc2ccccc2OCCCCN2CCOCC2)cc1 | 0.3 | 
CN(C)CCCCOc1ccccc1Cl.Cl | 0.47 | 
CNCCCCOc1ccccc1C(=O)c1ccccc1.Cl | 0 | 
CNCCCCOc1ccccc1Cc1ccccc1O.Cl | 0.99 | Effect (Rattus norvegicus [9]): 51%; ED10 (Mus musculus [8]): 15 mg/kg; ED50 (Mus musculus [5]): > 200 mg/kg; ED50 (Mus musculus [6]): > 200 mg/kg; IC50 (Cavia porcellus): 2.5 µg/mL; LD50 [7]: 750 mg/kg
CN(C)CCCCCOc1ccccc1Cc1ccccc1.Cl | 0.23 | 
CNCCCCOc1ccccc1Sc1ccccc1.Cl | 0.89 | Effect (Rattus norvegicus [10]): 31%; ED10 (Mus musculus [3]): 15 mg/kg; ED50 (Mus musculus [5]): > 200 mg/kg; ED50 (Mus musculus [6]): > 200 mg/kg; IC50 (Cavia porcellus): 2.2 µg/mL; LD50 [7]: 980 mg/kg
Cc1cccc(Cc2ccccc2)c1OCCCCN(C)C.Cl | 0.66 | 
CN(C)CCC=C1c2ccccc2CCc2ccccc21 [AMITRIPTYLINE] | 5.8 | ED50 (Mus musculus [5]): 40 mg/kg; ED50 (Mus musculus [6]): 35 mg/kg; Effect (Rattus norvegicus [11]): 31%; IC50 (Cavia porcellus): 0.0083 µg/mL (≈ 0.0299 µM); LD50 [7]: 300 mg/kg
CN(C)CCCN1c2ccccc2CCc2ccccc21 [IMIPRAMINE] |  | ED50 (Mus musculus [5]): 190 mg/kg; ED50 (Mus musculus [6]): 120 mg/kg; Effect (Rattus norvegicus [11]): 31%; IC50 (Cavia porcellus): 0.032 µg/mL (≈ 0.114 µM)
